We go through one compound from ChEMBL document CHEMBL4024706 (Eur J Med Chem, 2017).

Experiment [1] concerns the target Serine/threonine-protein kinase SIK2 (Homo sapiens) (UniProt Q9H0K1). As to the kind of experiment: Inhibition of wild-type human full length SIK2 (M1 to N926 residues) expressed in bacterial expression system assessed as residual activity at 1 uM by Kinomescan method relative to control.
In experiment [2] the target is Phosphatidylinositol 4-kinase beta (Homo sapiens) (UniProt Q9UBF8). As to the kind of experiment: Inhibition of wild-type human full length PIK4CB (M1 to M828 residues) expressed in mammalian expression system assessed as residual activity at 1 uM by Kinomescan method relative to control.
Experiment [3] concerns the target TGF-beta receptor type-1 (Homo sapiens) (UniProt P36897). As to the kind of experiment: Inhibition of wild-type human partial length TGFBR1 (D179 to M503 residues) expressed in bacterial expression system assessed as residual activity at 1 uM by Kinomescan method relative to control.
In experiment [4] the target is Protein-tyrosine kinase 2-beta (Homo sapiens) (UniProt Q14289). As to the kind of experiment: Inhibition of wild-type human full length PYK2 (M1 to E967 residues) expressed in bacterial expression system assessed as residual activity at 1 uM by Kinomescan method relative to control.
Sequence of Protein-tyrosine kinase 2-beta (Homo sapiens) (Q14289 whole entry, looked up, the tested form may be a part): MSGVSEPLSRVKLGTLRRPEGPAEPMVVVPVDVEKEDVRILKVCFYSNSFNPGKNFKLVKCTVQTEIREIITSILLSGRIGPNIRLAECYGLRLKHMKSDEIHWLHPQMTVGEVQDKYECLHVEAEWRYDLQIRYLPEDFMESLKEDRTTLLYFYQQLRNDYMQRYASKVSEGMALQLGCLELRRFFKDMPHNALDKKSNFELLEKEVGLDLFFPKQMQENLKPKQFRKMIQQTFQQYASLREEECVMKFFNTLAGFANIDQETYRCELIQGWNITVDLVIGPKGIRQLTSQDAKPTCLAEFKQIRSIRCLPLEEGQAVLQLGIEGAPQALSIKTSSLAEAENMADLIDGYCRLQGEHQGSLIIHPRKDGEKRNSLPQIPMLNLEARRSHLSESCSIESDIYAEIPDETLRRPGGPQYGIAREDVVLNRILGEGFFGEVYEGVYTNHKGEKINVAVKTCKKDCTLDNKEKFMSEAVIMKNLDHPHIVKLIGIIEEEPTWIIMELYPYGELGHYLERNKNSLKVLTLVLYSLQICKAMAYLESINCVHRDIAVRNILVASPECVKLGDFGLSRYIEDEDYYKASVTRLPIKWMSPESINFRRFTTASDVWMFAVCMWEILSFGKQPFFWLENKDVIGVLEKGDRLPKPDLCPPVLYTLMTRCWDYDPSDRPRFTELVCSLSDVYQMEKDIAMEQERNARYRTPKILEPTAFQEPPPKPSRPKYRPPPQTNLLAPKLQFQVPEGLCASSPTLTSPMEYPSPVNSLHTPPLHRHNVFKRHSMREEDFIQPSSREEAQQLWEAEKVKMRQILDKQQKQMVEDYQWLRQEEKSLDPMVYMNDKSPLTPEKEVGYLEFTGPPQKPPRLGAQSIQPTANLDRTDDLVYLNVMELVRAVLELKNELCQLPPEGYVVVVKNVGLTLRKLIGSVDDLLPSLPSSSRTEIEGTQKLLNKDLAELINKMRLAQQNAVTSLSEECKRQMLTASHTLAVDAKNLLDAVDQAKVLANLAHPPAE
Experiment [5] addresses Cyclin-dependent kinase-like 5 (Homo sapiens) (UniProt O76039). As to the kind of experiment: Inhibition of wild-type human partial length CDKL5 (M1 to S337 residues) expressed in mammalian expression system assessed as residual activity at 1 uM by Kinomescan method relative to control.
The target in experiment [6] is Mitogen-activated protein kinase kinase kinase 13 (Homo sapiens) (UniProt O43283). As to the kind of experiment: Inhibition of wild-type human full length LZK (M1 to W966 residues) expressed in mammalian expression system assessed as residual activity at 1 uM by Kinomescan method relative to control.
Sequence of Mitogen-activated protein kinase kinase kinase 13 (Homo sapiens) (O43283 whole entry, the tested form may be a part): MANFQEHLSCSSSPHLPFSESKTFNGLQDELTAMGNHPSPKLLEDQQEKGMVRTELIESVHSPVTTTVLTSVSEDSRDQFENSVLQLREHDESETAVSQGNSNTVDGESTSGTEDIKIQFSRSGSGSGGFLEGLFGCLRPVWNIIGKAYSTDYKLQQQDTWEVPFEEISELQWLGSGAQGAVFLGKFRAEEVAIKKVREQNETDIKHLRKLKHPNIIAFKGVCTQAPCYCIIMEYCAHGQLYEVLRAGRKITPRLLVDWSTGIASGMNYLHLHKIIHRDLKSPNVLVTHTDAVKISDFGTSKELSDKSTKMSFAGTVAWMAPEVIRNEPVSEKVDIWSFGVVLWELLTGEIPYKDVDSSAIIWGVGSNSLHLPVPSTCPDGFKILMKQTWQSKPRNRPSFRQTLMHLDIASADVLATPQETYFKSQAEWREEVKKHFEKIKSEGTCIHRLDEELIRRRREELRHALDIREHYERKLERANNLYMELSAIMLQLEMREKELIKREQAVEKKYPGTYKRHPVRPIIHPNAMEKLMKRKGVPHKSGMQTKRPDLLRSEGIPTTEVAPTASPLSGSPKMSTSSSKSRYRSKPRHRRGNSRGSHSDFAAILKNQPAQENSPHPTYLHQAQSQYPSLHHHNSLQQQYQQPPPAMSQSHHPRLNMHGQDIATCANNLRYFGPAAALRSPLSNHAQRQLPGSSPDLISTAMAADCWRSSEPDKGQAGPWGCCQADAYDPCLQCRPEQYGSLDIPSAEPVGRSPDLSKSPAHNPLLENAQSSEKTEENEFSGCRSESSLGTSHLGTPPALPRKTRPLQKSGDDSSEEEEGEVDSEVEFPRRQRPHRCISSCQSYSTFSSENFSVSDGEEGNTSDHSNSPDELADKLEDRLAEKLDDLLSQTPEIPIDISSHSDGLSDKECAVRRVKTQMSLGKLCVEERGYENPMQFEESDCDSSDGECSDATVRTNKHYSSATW
In experiment [7] the target is Mitogen-activated protein kinase 15 (Homo sapiens) (UniProt Q8TD08). As to the kind of experiment: Inhibition of wild-type human partial length ERK8 (M1 to P437 residues) expressed in bacterial expression system assessed as residual activity at 1 uM by Kinomescan method relative to control.
The test system of experiment [8] is Phosphatidylinositol 4,5-bisphosphate 3-kinase catalytic subunit alpha isoform (Homo sapiens), P42336 [Q546K]. The experiment in a line: Inhibition of human partial length PIK3CA Q546K mutant (R108 to N1068 residues) expressed in mammalian expression system assessed as residual activity at 1 uM by Kinomescan method relative to control.
Sequence of Phosphatidylinositol 4,5-bisphosphate 3-kinase catalytic subunit alpha isoform (Homo sapiens), P42336 [Q546K] (P42336 whole entry Q546K, the tested form may be a part, canonical isoform): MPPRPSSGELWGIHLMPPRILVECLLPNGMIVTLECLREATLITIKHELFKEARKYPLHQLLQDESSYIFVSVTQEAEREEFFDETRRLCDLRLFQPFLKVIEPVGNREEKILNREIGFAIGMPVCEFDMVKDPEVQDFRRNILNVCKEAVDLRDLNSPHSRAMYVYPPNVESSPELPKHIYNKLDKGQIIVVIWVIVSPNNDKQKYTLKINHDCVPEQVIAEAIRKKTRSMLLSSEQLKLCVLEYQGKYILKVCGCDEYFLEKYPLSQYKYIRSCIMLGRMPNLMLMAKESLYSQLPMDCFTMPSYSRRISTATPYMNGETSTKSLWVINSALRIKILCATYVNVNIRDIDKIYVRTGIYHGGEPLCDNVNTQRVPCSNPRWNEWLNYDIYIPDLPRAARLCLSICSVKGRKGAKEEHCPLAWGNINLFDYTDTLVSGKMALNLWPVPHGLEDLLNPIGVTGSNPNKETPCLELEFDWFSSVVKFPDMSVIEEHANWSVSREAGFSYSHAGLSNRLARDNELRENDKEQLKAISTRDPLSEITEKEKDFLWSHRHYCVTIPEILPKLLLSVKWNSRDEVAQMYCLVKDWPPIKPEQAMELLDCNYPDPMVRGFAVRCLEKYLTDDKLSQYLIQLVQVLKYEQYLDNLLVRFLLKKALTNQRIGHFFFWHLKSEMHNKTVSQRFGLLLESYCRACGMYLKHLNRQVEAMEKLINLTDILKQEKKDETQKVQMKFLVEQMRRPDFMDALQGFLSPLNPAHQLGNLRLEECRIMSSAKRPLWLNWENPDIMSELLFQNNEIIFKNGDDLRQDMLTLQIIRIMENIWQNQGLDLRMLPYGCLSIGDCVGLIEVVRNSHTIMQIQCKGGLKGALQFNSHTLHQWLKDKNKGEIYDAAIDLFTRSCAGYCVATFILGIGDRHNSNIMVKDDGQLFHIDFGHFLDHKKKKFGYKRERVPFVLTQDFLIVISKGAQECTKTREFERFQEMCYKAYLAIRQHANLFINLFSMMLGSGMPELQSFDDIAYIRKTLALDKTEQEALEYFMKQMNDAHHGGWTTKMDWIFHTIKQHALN
Experiment [9] concerns Phosphatidylinositol 4,5-bisphosphate 3-kinase catalytic subunit alpha isoform (Homo sapiens), P42336 [C420R]. As to the kind of experiment: Inhibition of human partial length PIK3CA C420R mutant (R108 to N1068 residues) expressed in mammalian expression system assessed as residual activity at 1 uM by Kinomescan method relative to control.
For experiment [10], the target named is Cyclin-dependent kinase 8 (Homo sapiens) (UniProt P49336). The experiment in a line: Inhibition of wild-type human partial length CDK8 (M1 to T360 residues) expressed in bacterial expression system assessed as residual activity at 1 uM by Kinomescan method relative to control.
Sequence of Cyclin-dependent kinase 8 (Homo sapiens) (P49336 whole entry, the tested form may be a part): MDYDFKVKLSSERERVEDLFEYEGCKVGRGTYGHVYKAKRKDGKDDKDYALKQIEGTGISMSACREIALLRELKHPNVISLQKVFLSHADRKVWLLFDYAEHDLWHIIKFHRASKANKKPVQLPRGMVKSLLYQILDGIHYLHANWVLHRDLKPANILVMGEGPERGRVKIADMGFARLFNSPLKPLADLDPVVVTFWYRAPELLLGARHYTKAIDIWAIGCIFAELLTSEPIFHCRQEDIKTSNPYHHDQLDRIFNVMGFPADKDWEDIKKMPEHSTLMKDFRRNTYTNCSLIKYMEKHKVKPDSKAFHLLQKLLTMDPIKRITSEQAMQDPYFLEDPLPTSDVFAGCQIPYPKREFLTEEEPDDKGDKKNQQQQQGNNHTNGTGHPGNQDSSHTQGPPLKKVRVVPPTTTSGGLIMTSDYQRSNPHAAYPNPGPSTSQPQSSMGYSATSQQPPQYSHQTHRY
For experiment [11], the target named is Serine/threonine-protein kinase RIO2 (Homo sapiens) (UniProt Q9BVS4). The experiment in a line: Inhibition of wild-type human partial length RIOK2 (M1 to D313 residues) expressed in mammalian expression system assessed as residual activity at 1 uM by Kinomescan method relative to control.
Sequence of Serine/threonine-protein kinase RIO2 (Homo sapiens) (Q9BVS4 whole entry, looked up, the tested form may be a part): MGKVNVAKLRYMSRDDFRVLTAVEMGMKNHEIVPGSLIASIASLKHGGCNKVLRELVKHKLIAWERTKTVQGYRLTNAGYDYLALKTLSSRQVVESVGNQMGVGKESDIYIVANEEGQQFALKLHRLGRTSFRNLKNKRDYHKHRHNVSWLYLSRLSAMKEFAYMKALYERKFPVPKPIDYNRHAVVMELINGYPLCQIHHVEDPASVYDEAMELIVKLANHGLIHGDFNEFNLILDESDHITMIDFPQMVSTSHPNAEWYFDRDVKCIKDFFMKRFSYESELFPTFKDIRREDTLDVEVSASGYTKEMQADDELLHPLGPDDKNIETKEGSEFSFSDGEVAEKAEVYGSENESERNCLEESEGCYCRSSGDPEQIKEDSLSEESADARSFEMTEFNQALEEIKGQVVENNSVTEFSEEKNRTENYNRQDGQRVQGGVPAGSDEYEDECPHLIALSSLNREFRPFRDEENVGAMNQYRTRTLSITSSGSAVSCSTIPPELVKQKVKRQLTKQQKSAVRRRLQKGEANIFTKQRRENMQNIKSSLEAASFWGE
For a further experiment, the system named is U2932. The experiment in a line: Induction of apoptosis in human U2932 cells assessed as induction of PARP cleavage after 48 hrs by immunoblot. The experiment is classed as functional, cell-based.
For experiment [12], the target named is Serine/threonine-protein kinase Nek4 (Homo sapiens) (UniProt P51957). As to the kind of experiment: Inhibition of wild-type human full length NEK4 (M1 to F841 residues) expressed in mammalian expression system assessed as residual activity at 1 uM by Kinomescan method relative to control.
The test system of experiment [13] is Serine/threonine-protein kinase B-raf (Homo sapiens), P15056 [V600E]. The experiment in a line: Inhibition of human partial length BRAF V600E mutant (S429 to E741 residues) expressed in mammalian expression system assessed as residual activity at 1 uM by Kinomescan method relative to control.
Sequence of Serine/threonine-protein kinase B-raf (Homo sapiens), P15056 [V600E] (P15056 whole entry V600E, the tested form may be a part, canonical isoform): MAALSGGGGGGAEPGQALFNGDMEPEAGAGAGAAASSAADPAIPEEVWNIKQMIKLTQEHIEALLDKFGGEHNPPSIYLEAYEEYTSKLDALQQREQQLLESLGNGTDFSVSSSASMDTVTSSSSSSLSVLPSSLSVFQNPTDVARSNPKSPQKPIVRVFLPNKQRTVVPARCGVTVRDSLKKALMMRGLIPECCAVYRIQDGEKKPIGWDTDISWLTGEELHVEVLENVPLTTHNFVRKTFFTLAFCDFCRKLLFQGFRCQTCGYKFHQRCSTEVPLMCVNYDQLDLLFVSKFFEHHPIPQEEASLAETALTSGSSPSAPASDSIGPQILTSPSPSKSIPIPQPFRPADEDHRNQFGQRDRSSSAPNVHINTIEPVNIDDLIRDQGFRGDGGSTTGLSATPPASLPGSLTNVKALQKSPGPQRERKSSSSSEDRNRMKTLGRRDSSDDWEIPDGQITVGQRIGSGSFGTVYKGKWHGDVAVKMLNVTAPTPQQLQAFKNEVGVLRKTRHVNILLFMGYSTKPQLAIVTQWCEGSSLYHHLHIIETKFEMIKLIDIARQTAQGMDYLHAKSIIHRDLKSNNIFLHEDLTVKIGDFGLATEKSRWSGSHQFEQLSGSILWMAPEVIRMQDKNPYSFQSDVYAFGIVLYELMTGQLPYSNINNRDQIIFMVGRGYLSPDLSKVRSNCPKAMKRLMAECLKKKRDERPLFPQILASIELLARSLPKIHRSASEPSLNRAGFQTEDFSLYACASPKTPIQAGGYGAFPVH
For experiment [14], the target named is Phosphorylase b kinase gamma catalytic chain, skeletal muscle/heart isoform (Homo sapiens) (UniProt Q16816). As to the kind of experiment: Inhibition of wild-type human full length PHKG1 (M1 to Y387 residues) expressed in bacterial expression system assessed as residual activity at 1 uM by Kinomescan method relative to control.
A further experiment relates to Pfeiffer. As to the kind of experiment: Induction of apoptosis in human Pfeiffer cells assessed as induction of PARP cleavage after 48 hrs by immunoblot. The experiment is classed as functional, cell-based. Background: Immunoblotting shows a protein as a band on a membrane.

Consider `C=CC(=O)Nc1cc(Nc2cc(-c3cccc(NC(=O)c4ccc(C(C)(C)C)cc4)c3C)cn(C)c2=O)ccc1C(=O)N1CCOCC1`, for which the Activity worked out at 87% in [1]; 90% in experiment [2]; 93% in experiment [3]; 100% in experiment [4]; 100% in [5]; 98% in experiment [6]. For the same compound, the Activity in [7] is 100%; in [8], 87%; in experiment [9], 100%; in [10] it was 100%; in experiment [11] it was 100%; in the experiment with U2932, “Dose-dependent effect”. Also, the Activity in [12] is 100%; in experiment [13], 100%; in experiment [14] it was 100%; in the experiment on Pfeiffer, “Dose-dependent effect”.
